For assay [1], the system named is S. aureus RN4220. The experiment in a line: MIC, agar plate dilution method, S. aureus RN4220. In kind it is cell-based, Staphylococcus aureus. The note with it: for MIC: Staphylococcus aureus, RN4220, S. aureus RN4220, Sensitive bacterium, read-out: minimal inhibitory concentration (MIC). Here is the method:
(§1) As for the representative compounds of a new aminoglycoside antibiotic of the present invention described in Examples, the minimal inhibitory concentration (MIC, μg/mL) was measured for various assay strains of bacteria using an agar plate dilution method in accordance with the method described in the Japan Society of Chemotherapy.

Assay [2] deals with S. aureus RN4220/pMS520. Put plainly: MIC, agar plate dilution method, S. aureus RN4220/pMS520. It counts as cell-based, Staphylococcus aureus. The note with it: for MIC: Staphylococcus aureus, MRSA, read-out: minimal inhibitory concentration (MIC), S. aureus RN4220/pMS520, MRSA. Here is the method: as §1
Assay [3] concerns S. aureus MF490. Put plainly: MIC, agar plate dilution method, S. aureus MF490. It counts as cell-based, Staphylococcus aureus. The note with it: for MIC: Staphylococcus aureus, MRSA, read-out: minimal inhibitory concentration (MIC). Here is the method:
as §1

Assay [4] deals with E. faecium ATCC19434. Put plainly: MIC, agar plate dilution method, E. faecium ATCC19434. It counts as cell-based, Enterococcus faecium. The note with it: for MIC: Enterococcus faecium, ATCC19434, E. faecium ATCC19434, read-out: minimal inhibitory concentration (MIC). Here is the method: as §1
For assay [5], the system named is E. coli JM109/pMW218. The experiment in a line: MIC, agar plate dilution method, E. coli JM109/pMW218. The conditions noted are these: for MIC: Escherichia coli, JM109/PMW218, E. coli JM109/pMW218, Sensitive bacterium, read-out: minimal inhibitory concentration (MIC). In kind it is cell-based, Escherichia coli. As for the experimental part: as §1
The test system of assay [6] is K. pneumoniae ATCC BAA-1705. Put plainly: MIC, agar plate dilution method, K. pneumoniae ATCC BAA-1705. It counts as cell-based, Klebsiella pneumoniae. The conditions noted are these: for MIC: Klebsiella pneumoniae, ATCCBAA1705, K. pneumoniae ATCC BAA-1705, KPC-producing strain, read-out: minimal inhibitory concentration (MIC). Here is the method: as §1
The subject of assay [7] is K. pneumoniae ATCC BAA-2146. Put plainly: MIC, agar plate dilution method, K. pneumoniae ATCC BAA-2146. It counts as cell-based, Klebsiella pneumoniae. The conditions noted are these: for MIC: Klebsiella pneumoniae, ATCCBAA2146, K. pneumoniae ATCC BAA-2146, NDM-producing strain, read-out: minimal inhibitory concentration (MIC). Here is the method:
as §1

The test system of assay [8] is A. baumannii ATCC BAA-1710. Put plainly: MIC, agar plate dilution method, A. baumannii ATCC BAA-1710. The note with it: for MIC: Acinetobacter baumannii, ATCCBAA1710, A. baumannii ATCC BAA-1710, MDRA, read-out: minimal inhibitory concentration (MIC). It counts as cell-based, Acinetobacter baumannii. As for the experimental part:
as §1

For assay [9], the system named is S. marcescens TH-0447. The experiment in a line: MIC, agar plate dilution method, S. marcescens TH-0447. It counts as cell-based, Serratia marcescens. The conditions noted are these: for MIC: Serratia marcescens, TH0447, S. marcescens TH-0447, AMK-resistant, read-out: minimal inhibitory concentration (MIC). As for the experimental part: as §1
Assay [10] relates to S. marcescens GN6944. Put plainly: MIC, agar plate dilution method, S. marcescens GN6944. In kind it is cell-based, Serratia marcescens. The note with it: S. marcescens GN6944, GM-resistant; for MIC: Serratia marcescens, read-out: minimal inhibitory concentration (MIC). Here is the method:
as §1

In assay [11] the test system is P. aeruginosa PAO1. Put plainly: MIC, agar plate dilution method, P. aeruginosa PAO1. In kind it is cell-based, Pseudomonas aeruginosa. The conditions noted are these: for MIC: Pseudomonas aeruginosa, PAO1, P. aeruginosa PAO1, Sensitive bacterium, read-out: minimal inhibitory concentration (MIC). As for the experimental part: as §1
Assay [12] has as its system P. aeruginosa PAO1/GN315. Put plainly: MIC, agar plate dilution method, P. aeruginosa PAO1/GN315. It counts as cell-based, Pseudomonas aeruginosa. The conditions noted are these: for MIC: Pseudomonas aeruginosa, read-out: minimal inhibitory concentration (MIC), P. aeruginosa PAO1/GN315, AMK-resistant. Here is the method: as §1
The test system of assay [13] is P. aeruginosa MSC17707. The experiment in a line: MIC, agar plate dilution method, P. aeruginosa MSC17707. It counts as cell-based, Pseudomonas aeruginosa. The note with it: for MIC: Pseudomonas aeruginosa, MSC17707, P. aeruginosa MSC17707, AMK-resistant, read-out: minimal inhibitory concentration (MIC). Here is the method:
as §1

Assay [14] relates to P. aeruginosa MSC01035. Put plainly: MIC, agar plate dilution method, P. aeruginosa MSC01035. It counts as cell-based, Pseudomonas aeruginosa. The conditions noted are these: P. aeruginosa MSC01035, ABK-resistant; for MIC: Pseudomonas aeruginosa, read-out: minimal inhibitory concentration (MIC). As for the experimental part: as §1

Converted amounts (≈) assume the structure as drawn.

Five molecules from patent publication US11135234B2, “Effective aminoglycoside antibiotic for multidrug-resistant bacteria” (MICROBIAL CHEMISTRY RESEARCH FOUNDATION, priority 2015, dated 2021) can be followed below.

With `CNCC(=O)N[C@@H]1C(CO)O[C@H](OC2O[C@H]3C[C@H](N)[C@@H](O[C@@H]4C(N)C[C@@H](N)C[C@H]4O)OC3C(O)C2NC)C(O)[C@H]1O` (stereo partly drawn) [Compound V1-p, 6-deoxy-5-epi-4″-N-sarcosylapramycin], the MIC in [1] stood at 1 µg/mL (≈ 1.68 µM); in assay [2], 1 µg/mL (≈ 1.68 µM); in assay [3], 4 µg/mL (≈ 6.73 µM); in [4] it was 8 µg/mL (≈ 13.5 µM); in assay [5] it was 1 µg/mL (≈ 1.68 µM); in assay [6], 1 µg/mL (≈ 1.68 µM). For the same molecule, the MIC in assay [7] was 1 µg/mL (≈ 1.68 µM); in assay [8], 4 µg/mL (≈ 6.73 µM); in assay [9] it was 8 µg/mL (≈ 13.5 µM); in assay [10] it was 4 µg/mL (≈ 6.73 µM); in assay [11], 2 µg/mL (≈ 3.36 µM); in assay [12], 4 µg/mL (≈ 6.73 µM). For the same molecule, the MIC in [13] is 2 µg/mL (≈ 3.36 µM); in [14], 4 µg/mL (≈ 6.73 µM).
With `NCC[C@H](O)C(=O)N[C@@H]1C[C@H](N)[C@@H](O[C@H]2O[C@H](CN)[C@@H](O)[C@H](O)[C@H]2O)[C@H](O)[C@H]1O[C@H]1O[C@H](CO)[C@@H](O)[C@H](N)[C@H]1O` [AMK, amikacin, reference compound], the MIC in [1] is 2 µg/mL (≈ 3.42 µM); in assay [2] it was 64 µg/mL (≈ 109 µM); in assay [3] it was more than 64 µg/mL; in assay [4], 32 µg/mL (≈ 54.6 µM); in assay [5], 0.5 µg/mL (≈ 0.854 µM); in assay [6], 32 µg/mL (≈ 54.6 µM). Also, the MIC in assay [7] is more than 64 µg/mL; in assay [8] it was 64 µg/mL (≈ 109 µM); in [9], more than 64 µg/mL; in assay [10], 8 µg/mL (≈ 13.7 µM); in [11] it was 2 µg/mL (≈ 3.42 µM); in assay [12] it was 64 µg/mL (≈ 109 µM). The MIC in [13] is 32 µg/mL (≈ 54.6 µM); in assay [14], more than 64 µg/mL.
For the molecule `CNC1C(O[C@H]2OC(CO)[C@@H](NCCCN)[C@H](O)C2O)O[C@H]2CC(N)[C@@H](O[C@@H]3C(N)C[C@@H](N)C[C@H]3O)OC2C1O` (stereo partly shown) [Compound S1-n, 6-deoxy-4″-N-(3-aminopropyl)-5-epiapramycin], the MIC in assay [1] came out at 2 µg/mL (≈ 3.44 µM); in assay [2] it was 2 µg/mL (≈ 3.44 µM); in assay [3], 8 µg/mL (≈ 13.8 µM); in assay [4], 8 µg/mL (≈ 13.8 µM); in assay [5], 1 µg/mL (≈ 1.72 µM); in assay [6], 1 µg/mL (≈ 1.72 µM). The MIC in [7] turned out to be 1 µg/mL (≈ 1.72 µM); in assay [8] it was 4 µg/mL (≈ 6.89 µM); in assay [9], 4 µg/mL (≈ 6.89 µM); in assay [10], 4 µg/mL (≈ 6.89 µM); in assay [11] it was 4 µg/mL (≈ 6.89 µM); in assay [12], 4 µg/mL (≈ 6.89 µM). The MIC in assay [13] worked out at 8 µg/mL (≈ 13.8 µM); in [14], 4 µg/mL (≈ 6.89 µM).
As to `CNC1C(O[C@H]2OC(CO)[C@@H](NC(=O)CCN)[C@H](O)C2O)O[C@H]2C[C@H](N)[C@@H](O[C@@H]3C(N)C[C@@H](N)C(O)[C@H]3O)OC2C1O` (stereo partly drawn) [Compound V1-m, 4″-N-(β-alanyl)-5-epiapramycin], the MIC in [1] amounted to 2 µg/mL (≈ 3.28 µM); in assay [2], 2 µg/mL (≈ 3.28 µM); in [3], 8 µg/mL (≈ 13.1 µM); in assay [4] it was 16 µg/mL (≈ 26.2 µM); in assay [5], 1 µg/mL (≈ 1.64 µM); in [6], 1 µg/mL (≈ 1.64 µM). In addition, the MIC was determined as 1 µg/mL (≈ 1.64 µM) in [7]; 8 µg/mL (≈ 13.1 µM) in [8]; 8 µg/mL (≈ 13.1 µM) in assay [9]; 8 µg/mL (≈ 13.1 µM) in assay [10]; 2 µg/mL (≈ 3.28 µM) in [11]; 4 µg/mL (≈ 6.55 µM) in assay [12]. The MIC in assay [13] was found to be 2 µg/mL (≈ 3.28 µM); in [14], 4 µg/mL (≈ 6.55 µM).
For the molecule `CNC1C(O[C@H]2OC(CO)[C@@H](NC)[C@H](O)C2O)O[C@H]2CC(N)[C@@H](O[C@@H]3C(N)C[C@@H](N)C(O)[C@H]3O)OC2C1O` (stereo partly drawn) [Compound S1-f, 5-epi-4″-N-methylapramycin], the “minimal inhibitory concentration (MIC)” value was determined as 2 µg/mL (≈ 3.61 µM) in [1] (S. aureus RN4220, Sensitive bacterium); 2 µg/mL (≈ 3.61 µM) in [2] (S. aureus RN4220/pMS520, MRSA); 8 µg/mL (≈ 14.5 µM) in [3] (S. aureus MF490, MRSA); 16 µg/mL (≈ 28.9 µM) in [4] (E. faecium ATCC19434); 1 µg/mL (≈ 1.81 µM) in [5] (E. coli JM109/pMW218, Sensitive bacterium); 2 µg/mL (≈ 3.61 µM) in assay [6] (K. pneumoniae ATCC BAA-1705, KPC-producing strain). Moreover, the “minimal inhibitory concentration (MIC)” value in [7] (K. pneumoniae ATCC BAA-2146, NDM-producing strain) stood at 1 µg/mL (≈ 1.81 µM); in assay [8] (A. baumannii ATCC BAA-1710, MDRA) it was 8 µg/mL (≈ 14.5 µM); in assay [9] (S. marcescens TH-0447, AMK-resistant) it was 8 µg/mL (≈ 14.5 µM); in [10] it was 4 µg/mL (≈ 7.23 µM); in [11] (P. aeruginosa PAO1, Sensitive bacterium) it was 4 µg/mL (≈ 7.23 µM); in assay [12] (P. aeruginosa PAO1/GN315, AMK-resistant), 4 µg/mL (≈ 7.23 µM). In addition, the “minimal inhibitory concentration (MIC)” value in assay [13] (P. aeruginosa MSC17707, AMK-resistant) is 8 µg/mL (≈ 14.5 µM); in assay [14] it was 8 µg/mL (≈ 14.5 µM).
